Test results taken from PubChem BioAssay AID1963838 (Molecular Pharmacology Branch, DTP, NCI, 2024).

Test system: 855422-203-R-J1-PDC complex spheroid viability
Test: Anticancer human tumor 855422-203-R-J1-PDC patient-derived bladder carcinoma cell line growth inhibition [POLQ]
Details: for IC50: curve of first compound; for viability, T/C: stronger effect = lower value; active = viability on the fitted dose curve at most 10% of control; inactive = the rest
Method: Multicellular complex tumor spheroid response to Polymerase (POL) inhibitors (novobiocin, ART-558, RP6685) in combination with a variety of drugs and investigational agents in selected tumor cell lines
The POL inhibitors (novobiocin, ART-558, and RP6685) were evaluated both individually and in combination with standard of care and investigational anticancer small molecules within a complex spheroid model of solid tumors. . Complex spheroids include a stromal component modeled by human endothelial cells (HUVEC) and fibroblasts modeled by human mesenchymal stem cells (MSCs). The concentration ranges selected for each drug and investigational agent were based upon clinically achievable concentrations if the clinical Cmax of the agent was known.
Compounds. The drugs and investigational agents: novobiocin (NSC847541), ART-558 (NSC835418), RP-6685 (NSC848927), peposertib (NSC802822), ceralasertib (NSC780249), elimusertib (NSC800525), camonsertib (NSC841442), AZD-1390 (NSC803789), olaparib (NSC753686), talazoparib (NSC767125), rucaparib (NSC756644), sotorasib (NSC818433), MRTX-1133 (NSC836407), SN-38 (NSC673596), topotecan (NSC609699), epotoside (NSC141540), doxorubicin (NSC123127), gemcitabine (NSC613327), 5-fluorouracil (NSC19893), paclitaxel (NSC125973), vemurafenib (NSC761431), MSA-2 (NSC828583), SN-011 (NSC837082), adavosertib (NSC754352), prexasertib (NSC758257), carboplatin (NSC241240) and oxaliplatin (NSC266046), were obtained from the National Cancer Institute (NCI) Developmental Therapeutics Program Chemical Repository (21). The FDA-approved anticancer drug set is available from the Developmental Therapeutics Program at https://dtp.cancer.gov/organization/dscb/obtaining/. […] The stock solutions were prepared in dimethyl sulfoxide (DMSO, Sigma-Aldrich, St. Louis, MO, cat. D2650), except for the platinum compounds which were prepared in saline (Quality Biological, Gaithersburg, MD, cat. 114-055-101), at 800-fold the tested concentration and stored at -70 degrees C prior to their use. All drugs and investigational agents were tested over a range starting from a high concentration at or near the clinical Cmax and decreasing in half-log increments. If the clinical Cmax for an agent had not been determined, the highest concentration tested was 10 microM, except for SN-38, which was tested at a high concentration of 1 microM.
Cell Culture. All cells were maintained in an incubator at 37 degrees C and 5% CO2 with 95% humidity. The PDC lines were cultured according to standard operating procedures established by the NCI PDMR (https://pdmr.cancer.gov). Table 3 of the manuscript, lists the cell lines along with the number of the three cell types plated to form the mct-spheroids and media for tumor cell growth. After thawing, all PDC lines, except 997537-175-T-J1-PDC and 415267-285-R-J2-PDC, were cultured in Matrigel-coated flasks prepared with a working solution of 1X Ham's F-12 nutrient mix, without supplementation (Thermo Fisher Scientific, cat. 11765054), 100 U/mL penicillin-streptomycin (Thermo Fisher Scientific, cat. 15140122), and 2.5% Matrigel (Corning Inc., Corning, NY, cat. 354248) for the first three passages. The two PDC lines 997537-175-T-J1-PDC and 415267-285-R-J2-PDC were cultured on uncoated flasks. The 857933-349-R-J2-PDC line was cultured in 6C/Colon 1B media containing advanced DMEM/F-12 (Thermo Fisher Scientific, cat. 12634028), 10 mM HEPES (Thermo Fisher Scientific, cat. 15630080), 1X GlutaMAX supplement (Thermo Fisher Scientific, cat. 35050061), 0.1 mg/mL primocin (InvivoGen, San Diego, CA, cat. ant-pm-2), 10% defined fetal bovine serum, heat inactivated (HyClone Laboratories Inc., Logan, UT, cat. SH30070.03HI), 50% L-WRN conditioned media (ATCC, cat. CRL-3276), 1.25 mM N-Acetyl-L-cysteine (Sigma-Aldrich, cat. A9165), 10 mM nicotinamide (Sigma-Aldrich, cat. N0636), 1X B-27 supplement (Thermo Fisher Scientific, cat. 17504044), 1X N-2 supplement (Thermo Fisher Scientific, cat. […]
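Note: spheroids exposed to compounds for seven days before readout.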

CC(=O)O[C@H]1C(=O)[C@@]2(C)[C@H]([C@H](OC(=O)c3ccccc3)[C@]3(O)C[C@H](OC(=O)[C@H](O)[C@@H](NC(=O)c4ccccc4)c4ccccc4)C(C)=C1C3(C)C)[C@]1(OC(C)=O)CO[C@@H]1C[C@@H]2O + COC1C(OC(N)=O)C(O)C(Oc2ccc3c(O)c(NC(=O)c4ccc(O)c(CC=C(C)C)c4)c(=O)oc3c2C)OC1(C)C
< 9.49 nM: IC50 (second compound 0.0316 µM) | IC50 (second compound 0.1 µM) | IC50 (second compound 0.316 µM) | IC50 (second compound 1 µM) | IC50 (second compound 3.16 µM) | IC50 (second compound 10 µM)
active: viability, T/C (second compound 0.0316 µM, first compound 0.00949 µM) 5.68% | viability, T/C (second compound 0.0316 µM, first compound 0.03 µM) 5.82% | viability, T/C (second compound 0.0316 µM, first compound 0.0949 µM) 5% | viability, T/C (second compound 0.0316 µM, first compound 0.3 µM) 6.46% | viability, T/C (second compound 0.0316 µM, first compound 0.949 µM) 5.84% | viability, T/C (second compound 0.0316 µM, first compound 3 µM) 5.17% | viability, T/C (second compound 0.1 µM, first compound 0.00949 µM) 5.77% | viability, T/C (second compound 0.1 µM, first compound 0.03 µM) 6.65% | viability, T/C (second compound 0.1 µM, first compound 0.0949 µM) 5.15% | viability, T/C (second compound 0.1 µM, first compound 0.3 µM) 4.93% | viability, T/C (second compound 0.1 µM, first compound 0.949 µM) 5.98% | viability, T/C (second compound 0.1 µM, first compound 3 µM) 4.74% | viability, T/C (second compound 0.316 µM, first compound 0.00949 µM) 8.12% | viability, T/C (second compound 0.316 µM, first compound 0.03 µM) 6.43% | viability, T/C (second compound 0.316 µM, first compound 0.0949 µM) 5.94% | viability, T/C (second compound 0.316 µM, first compound 0.3 µM) 4.73% | viability, T/C (second compound 0.316 µM, first compound 0.949 µM) 4.96% | viability, T/C (second compound 0.316 µM, first compound 3 µM) 5.68% | viability, T/C (second compound 1 µM, first compound 0.00949 µM) 7.33% | viability, T/C (second compound 1 µM, first compound 0.03 µM) 6.18% | viability, T/C (second compound 1 µM, first compound 0.0949 µM) 5.96% | viability, T/C (second compound 1 µM, first compound 0.3 µM) 5.56% | viability, T/C (second compound 1 µM, first compound 0.949 µM) 6.11% | viability, T/C (second compound 1 µM, first compound 3 µM) 6.43% | viability, T/C (second compound 3.16 µM, first compound 0.00949 µM) 6.84% | viability, T/C (second compound 3.16 µM, first compound 0.03 µM) 6.73% | viability, T/C (second compound 3.16 µM, first compound 0.0949 µM) 5.34% | viability, T/C (second compound 3.16 µM, first compound 0.3 µM) 5.02% | viability, T/C (second compound 3.16 µM, first compound 0.949 µM) 5.62% | viability, T/C (second compound 3.16 µM, first compound 3 µM) 6.32% | viability, T/C (second compound 10 µM, first compound 0.00949 µM) 7.25% | viability, T/C (second compound 10 µM, first compound 0.03 µM) 6.33% | viability, T/C (second compound 10 µM, first compound 0.0949 µM) 5.51% | viability, T/C (second compound 10 µM, first compound 0.3 µM) 5.78% | viability, T/C (second compound 10 µM, first compound 0.949 µM) 5.59% | viability, T/C (second compound 10 µM, first compound 3 µM) 6.4%
